Data on one compound can be found in patent EP4516289A1, “ANTIVIRAL NASAL SPRAY COMPRISING FAVIPIRAVIR” (SPH Sine Pharmaceutical Laboratories Co., Ltd, priority 2023, dated 2025).

Structures are written as SMILES. ≈ marks a conversion by molar mass, not a printed value.

Series [1] can be described thus: Solubility of micronized FPV in different organic solvents (visual inspection). The format is physicochemical. The note with it: thermodynamic from solid. From the text: In order to check for a possible improvement of FPV solubility in an aqueous solvent, it was decided to follow the protocol of WO2017009480. As a first task it was necessary to find a suitable organic solvent for pre-dissolution of FPV prior to adding the pre-dissolved FPV to the buffered aqueous solvent. The results are depicted in Table 1 Table 1: Solubility of micronized FPV in different organic solvents

For series [2] the following is noted: cited from earlier work.
Series [3] can be described thus: Solubility and storage stability of aqueous FPV formulations (RP-HPLC on day 0 and day 7). The format is physicochemical. The following applies: for solubility: thermodynamic from solid; for highest starting concentration of dissolved FPV: HPLC day 0, calculated approx. 17 mg/ml. As for the experimental part: In order to determine the maximum solubility of FPV in water various samples of either raw or micronized FPV powder have been prepared. […] In this experimental set-up, the FPV starting concentration was adjusted to a calculated value of 5 mg/ml. After admixture of all ingredients the experimental samples contained 10 %v/v PEG 400, 2 %wt dexpanthenol, and either a citrate or a phosphate buffer, or a combination of both, adjusted to pH 5.5. The selected saponins were tested each in three concentrations, i.e. escin: 0.10, 0.25 and 0.50% w/v, and glycyrrhizin: 1.0, 2.5 and 5.0% w/v. Glycyrrhizin was applied in the form of dipotassium glycyrrhizinate in this and all other examples. For the quantification of FPV contents in the experimental sample formulations, an RP-HPLC method using a Zorbax Eclipse Plus C18 column from Agilent Technologies was applied and adapted for the present purpose. The results of the storage stability test of the various FPV containing samples are depicted in Table 2. Table 2: Storage stability of different aqueous formulations of 5 mg/ml FPV In an attempt to raise the starting concentration of FPV in a pharmaceutically acceptable aqueous solvent the PEG 400 / FPV stock solution was applied in an amount such as to increase the theoretical / calculated FPV concentration from 5 to about 10mg/ml, more precisely to 9.5mg/ml. After admixture of the predetermined portion of PEG 400 solvent comprising FPV to the aqueous buffer solution the resulting samples contained 10.5 %v/v PEG 400, and 2% dexpanthenol in phosphate buffer pH 5.5. The selected saponins were applied in the following concentrations: escin: 0.01 and 0.05 %w/v; glycyrrhizin: 1.0, 2.5 and 5.0 %w/v. The sample formulations were analyzed by HPLC on day 0 and day 7, the results being depicted in Table 3. Table 3: Storage stability of different aqueous formulations of 9.5 mg/ml FPV In a next step it was tried to even further increase the FPV concentration in the aqueous solvent system. The theoretical FPV starting concentration was adjusted to approximately 17 mg/ml, more precisely to 17.2 mg/ml (raw FPV) and 17.1 mg/ml (micronized FPV), using stock solutions comprising 85.45 mg/ml (raw) and 86.07 mg/ml (micronized) FPV in PEG 400. The final experimental samples contained […] and 2% dexpanthenol in phosphate buffer, pH 5.5, along with varying saponin concentrations: escin 0.10, 0.25 and 0.50 %w/v; glycyrrhizin: 1.0, 2.5 and 5.0 %w/v. The factual - as opposed to the calculated, theoretical - FPV concentrations were determined from the sample preparations by HPLC on day 0 and day 7. Table 4: Storage stability of different aqueous formulations of 17 mg/ml FPV In yet another experimental set-up a possible influence of the organic solvent PEG 400 on the solubility and stability of buffered aqueous sample preparations containing approximately 10 mg/ml FPV was investigated. PEG 400 was used at concentrations of 0, 2.5, 5.0, 7.5 and 10.0 %v/v. The samples were prepared in phosphate buffer, pH 5.5 with 2% dexpanthenol and including at least one of the saponins in the following concentrations: escin 0.01 and 0.05 %w/v; glycyrrhizin 1.0, 2.5 and 5.0 %w/v. […] The FPV contents in the sample preparations were analyzed by HPLC on day 0 and day 7, and the results are depicted in Table 5. In this experiment, only micronized FPV powder was used and was directly added to the aqueous formulations in an amount such as to yield a calculated (theoretical) concentration of 10 mg/ml. […]

`NC(=O)c1nc(F)cnc1O` [FPV, 6-fluoro-3-hydroxypyrazine-2-carboxamide]: the solubility in series [1] (organic solvent or mixture, solvent Glycerol, read-out: Solubility, Visual Inspection Conc.) was below 33000 µg/mL; in series [1] (organic solvent or mixture, solvent PEG 400, read-out: Solubility, Visual Inspection Conc.), 90000 µg/mL (≈ 573 mM); in series [1] (organic solvent or mixture, solvent PG, read-out: Solubility, Visual Inspection Conc.), below 10000 µg/mL; in series [1] (organic solvent or mixture, solvent PPG 400, read-out: Solubility, Visual Inspection Conc.), 25000 µg/mL (≈ 159 mM); in series [1] (solvent AD (distilled water), read-out: Solubility, Visual Inspection Conc.) it was 5000 µg/mL (≈ 31.8 mM); in series [3] (25 °C, pure water, read-out: solubility in an aqueous solution) it was around 4500 µg/mL. In addition, the solubility is above 10000 µg/mL in series [3] (aqueous buffer, stable pH 4 to 6, phosphate or citrate buffer system, read-out: solubility in an aqueous solution) and below 5000 µg/mL in series [3] (aqueous solution without buffer, 25 °C, water, without buffer, regardless of the amount of FPV added, read-out: maximum solubility of FPV in an aqueous solution). Further, the “solubility in water” value in series [2] was “slightly soluble”. Also, the “highest starting concentration of dissolved FPV” value is 11.7 mg/mL in series [3] (micronized FPV in phosphate buffer without saponins and without dexpanthenol); 11.5 mg/mL in series [3] (raw FPV in phosphate buffer pH 5.5 including 5 %w/v glycyrrhizin).

One may read the solubility as the dissolved amount per volume that the medium holds.
